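Dose response: 5 concentrations. Exposure: 48 h. Format: 96-well plates. Endpoint: linear interpolation; highest concentration if not reached. At the GI50, growth is halved. TGI: total growth inhibition.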
Assays:
Experiment in all cases: NCI-60 cell line screen, 48 h; in the data active means GI50 below about 0.43 µM; inactive means the rest
[1] = test system: U251 CNS
[2] = test system: MALME-3M melanoma
[3] = test system: HOP-92 NSCLC
[4] = test system: NCI-H460 lung
[5] = test system: UACC-257 melanoma
[6] = test system: SR leukemia
[7] = test system: SK-MEL-28 melanoma
[8] = test system: OVCAR-3 ovarian
[9] = test system: SNB-19 CNS
[10] = test system: UO-31 renal
[11] = test system: NCI-H226 lung
[12] = test system: PC-3 prostate
[13] = test system: 786-0 renal
[14] = test system: DU-145 prostate
[15] = test system: SF-295 CNS
[16] = test system: TK-10 renal
[17] = test system: KM12 colon
[18] = test system: CCRF-CEM leukemia
[19] = test system: K-562 leukemia
[20] = test system: NCI-H23 lung
[21] = test system: RPMI-8226 leukemia
[22] = test system: HCC-2998 colon
[23] = test system: M14 melanoma
[24] = test system: MDA-MB-435
[25] = test system: OVCAR-8 ovarian
[26] = test system: COLO 205 colon
[27] = test system: SK-OV-3 ovarian
[28] = test system: HS 578T breast
[29] = test system: CAKI-1 renal
[30] = test system: SN12C renal
[31] = test system: MCF7 breast
[32] = test system: SK-MEL-2 melanoma
[33] = test system: HT29 colon
[34] = test system: HCT-15 colon
[35] = test system: NCI/ADR-RES ovarian
[36] = test system: SK-MEL-5 melanoma
[37] = test system: RXF 393 renal
[38] = test system: HL-60(TB) leukemia
[39] = test system: SNB-75 CNS
[40] = test system: MDA-MB-231 breast
[41] = test system: ACHN renal
[42] = test system: A549 NSCLC
[43] = test system: MOLT-4 leukemia
[44] = test system: HOP-62 NSCLC
[45] = test system: SW-620 colon
[46] = test system: SF-539 CNS
[47] = test system: T-47D breast
[48] = test system: NCI-H522 lung
[49] = test system: BT-549 breast
[50] = test system: IGROV1 ovarian
[51] = test system: HCT-116 colon
[52] = test system: LOX IMVI melanoma
[53] = test system: OVCAR-4 ovarian
[54] = test system: OVCAR-5 ovarian
[55] = test system: EKVX NSCLC
[56] = test system: UACC-62 melanoma
[57] = test system: SF-268 CNS
[58] = test system: A498 renal

OCCCNC(=S)Nc1ccc(-c2nc3ccccc3s2)cc1
47.1 µM: TGI [36]
49 µM: TGI [23]
inactive: GI50 [1] 29.8 µM | GI50 [2] 19.3 µM | GI50 [3] 19.7 µM | GI50 [4] 25.9 µM | GI50 [5] 27.1 µM | GI50 [6] 14.6 µM | GI50 [7] 24.9 µM | GI50 [8] 15 µM | GI50 [9] 32.2 µM | GI50 [10] 12 µM | GI50 [11] 18.5 µM | GI50 [12] 27.7 µM | GI50 [13] 22.8 µM | GI50 [14] 40.9 µM | GI50 [15] 14.8 µM | GI50 [16] 19.3 µM | GI50 [17] 17.8 µM | GI50 [18] 16.9 µM | GI50 [19] 29.7 µM | GI50 [20] 24.3 µM | GI50 [21] 26.5 µM | GI50 [22] 13.7 µM | GI50 [23] 23.3 µM | GI50 [24] 17.9 µM | GI50 [25] 33.7 µM | GI50 [26] 30 µM | GI50 [27] 63.7 µM | GI50 [28] 33 µM | GI50 [29] 14.3 µM | GI50 [30] 22.8 µM | GI50 [31] 32.5 µM | GI50 [32] 31.6 µM | GI50 [33] 32.2 µM | GI50 [34] 16.7 µM | GI50 [35] 25.2 µM | GI50 [36] 20.9 µM | GI50 [37] 10.4 µM | GI50 [38] 25.5 µM | GI50 [39] 18.8 µM | GI50 [40] 16.5 µM | GI50 [41] 21.5 µM | GI50 [42] 33.7 µM | GI50 [43] 16.7 µM | GI50 [44] 31.8 µM | GI50 [45] 47.7 µM | GI50 [46] 29.8 µM | GI50 [47] 16.9 µM | GI50 [48] 12.6 µM | GI50 [49] 25 µM | GI50 [50] 13.5 µM | GI50 [51] 19.9 µM | GI50 [52] 17.9 µM | GI50 [53] 28.1 µM | GI50 [54] 20.6 µM | GI50 [55] 17 µM | GI50 [56] 18.6 µM | GI50 [57] 22.5 µM
50.8 µM: TGI [24]
54.8 µM: TGI [30]
82.9 µM: TGI [3] | TGI [49]
50 µM: TGI [6]
41 µM: TGI [56]
95.4 µM: TGI [46] | TGI [50]
47.7 µM: TGI [41]
58.3 µM: TGI [54]
46.2 µM: TGI [51]
66.6 µM: TGI [35]
52.7 µM: TGI [2]
38.2 µM: TGI [52]
59.8 µM: TGI [8]
> 100 µM: TGI [1] | TGI [4] | TGI [9] | TGI [12] | TGI [14] | TGI [18] | TGI [19] | TGI [21] | TGI [26] | TGI [27] | TGI [28] | TGI [31] | TGI [32] | TGI [33] | TGI [38] | TGI [42] | TGI [43] | TGI [44] | TGI [45] | TGI [47] | TGI [53] | TGI [57]
46.9 µM: TGI [17]
60.7 µM: TGI [10]
45 µM: TGI [15]
39.8 µM: TGI [34]
55.2 µM: TGI [13]
49.6 µM: TGI [11]
91.9 µM: TGI [25]
43.5 µM: TGI [40]
38.7 µM: TGI [48]
55.8 µM: TGI [16]
60.8 µM: TGI [20]
78.8 µM: TGI [39]
52.4 µM: TGI [37]
40.6 µM: TGI [29]
51.9 µM: TGI [5]
83.2 µM: TGI [55]
70.3 µM: TGI [7]
26.8 µM: TGI [22]

COc1cc2c(/C=C3/C(=O)Nc4c3ccc3ccccc43)c(Cl)[nH]c2cc1C
< 0.005 µM: TGI [6] | TGI [22]
> 34.1 µM: TGI [10]
0.284 µM: TGI [36]
4.59 µM: TGI [20]
9.94 µM: TGI [1]
0.778 µM: TGI [42]
4.08 µM: TGI [44]
inactive: GI50 [7] 17.3 µM | GI50 [58] > 50 µM | GI50 [16] 30.5 µM | GI50 [32] 0.872 µM | GI50 [47] > 50 µM | GI50 [54] 10.2 µM
> 15.7 µM: TGI [14]
0.661 µM: TGI [38]
> 36.3 µM: TGI [55]
1.82 µM: TGI [25]
> 30.1 µM: TGI [32]
0.58 µM: TGI [19]
> 21.8 µM: TGI [4]
0.119 µM: TGI [46]
> 50 µM: TGI [5] | TGI [7] | TGI [9] | TGI [58] | TGI [16] | TGI [27] | TGI [31] | TGI [33] | TGI [45] | TGI [47] | TGI [49] | TGI [54]
> 14.6 µM: TGI [57]
> 19.8 µM: TGI [56]
> 16.8 µM: TGI [12]
0.0237 µM: TGI [15]
33.4 µM: TGI [37]
0.0294 µM: TGI [8]
> 19.6 µM: TGI [30]
active: GI50 [1] 0.0559 µM | GI50 [4] 0.0244 µM | GI50 [5] 0.316 µM | GI50 [6] < 0.005 µM | GI50 [8] 0.00854 µM | GI50 [9] 0.0402 µM | GI50 [10] 0.0216 µM | GI50 [11] 0.249 µM | GI50 [12] 0.0152 µM | GI50 [13] 0.0598 µM | GI50 [14] 0.165 µM | GI50 [15] 0.00761 µM | GI50 [17] 0.0124 µM | GI50 [19] < 0.005 µM | GI50 [20] 0.0152 µM | GI50 [21] 0.0144 µM | GI50 [22] < 0.005 µM | GI50 [23] 0.0119 µM | GI50 [24] 0.00618 µM | GI50 [25] 0.0176 µM | GI50 [26] 0.0715 µM | GI50 [27] 0.0364 µM | GI50 [28] 0.289 µM | GI50 [29] 0.00894 µM | GI50 [30] 0.071 µM | GI50 [31] 0.0342 µM | GI50 [33] 0.0246 µM | GI50 [34] 0.0427 µM | GI50 [35] 0.0139 µM | GI50 [36] 0.103 µM | GI50 [37] 0.0999 µM | GI50 [38] 0.0115 µM | GI50 [40] 0.0366 µM | GI50 [41] 0.0261 µM | GI50 [42] 0.0443 µM | GI50 [44] 0.0144 µM | GI50 [45] 0.0781 µM | GI50 [46] 0.0106 µM | GI50 [48] 0.0123 µM | GI50 [49] 0.0254 µM | GI50 [50] 0.0125 µM | GI50 [51] 0.0078 µM | GI50 [52] 0.00548 µM | GI50 [55] 0.222 µM | GI50 [56] 0.0119 µM | GI50 [57] 0.0218 µM
33.2 µM: TGI [11]
0.0304 µM: TGI [52]
0.0238 µM: TGI [24]
> 31.1 µM: TGI [3]
0.143 µM: TGI [34]
6.92 µM: TGI [41]
> 24.2 µM: TGI [13]
0.032 µM: TGI [23]
1.09 µM: TGI [35]

From PubChem BioAssay (NCI)
